Assay results reported in ChEMBL document CHEMBL1157712, “Hit to lead account of the discovery of bisbenzamide and related ureidobenzamide inhibitors of Rho kinase” (J Med Chem, 2010).
Converted amounts (≈) assume the structure as drawn.

Columns and labels:
[1] = (§1) Permeability from apical to basolateral side in human Caco-2 cells; format: ADME, cell-based; conditions: Caco-2, read-out: permeability
[2] = Permeability from basolateral to apical side in human Caco-2 cells; format: ADME, cell-based; conditions: read-out: permeability
[3] = Metabolic stability in human liver microsomes assessed as half life; format: ADME, Microsome
Cytochrome P450 1A2 [4] = target: T1, Cytochrome P450 1A2 (Homo sapiens, UniProt P05177); test: Inhibition of human CYP1A2 by fluorescence assay; format: ADME
T1 sequence (P05177 whole entry): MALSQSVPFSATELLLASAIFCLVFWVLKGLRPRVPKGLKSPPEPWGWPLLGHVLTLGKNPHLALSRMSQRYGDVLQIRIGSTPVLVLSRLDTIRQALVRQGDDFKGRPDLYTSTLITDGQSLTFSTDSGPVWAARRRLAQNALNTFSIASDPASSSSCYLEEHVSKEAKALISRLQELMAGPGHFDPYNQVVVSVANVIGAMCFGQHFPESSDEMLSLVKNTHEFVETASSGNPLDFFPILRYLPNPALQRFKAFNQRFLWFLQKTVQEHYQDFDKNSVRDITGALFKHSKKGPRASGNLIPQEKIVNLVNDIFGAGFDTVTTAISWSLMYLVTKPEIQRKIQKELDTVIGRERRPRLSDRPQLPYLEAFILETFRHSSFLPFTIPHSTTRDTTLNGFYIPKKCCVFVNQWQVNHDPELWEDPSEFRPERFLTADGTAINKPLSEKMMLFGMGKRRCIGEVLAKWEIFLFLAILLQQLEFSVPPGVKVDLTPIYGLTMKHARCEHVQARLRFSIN

Cytochrome P450 2C9 [5] = target: T2, Cytochrome P450 2C9 (Homo sapiens, UniProt P11712); test: Inhibition of human CYP2C9 by fluorescence assay; format: ADME
Cytochrome P450 2C19 = Cytochrome P450 2C19 (Homo sapiens, UniProt P33261); test: Inhibition of human CYP2C19 by fluorescence assay; format: ADME
Cytochrome P450 2D6 [6] = target: T3, Cytochrome P450 2D6 (Homo sapiens, UniProt P10635); test: Inhibition of human CYP2D6 by fluorescence assay; format: ADME
Rattus norvegicus = species: Rattus norvegicus; test: Induction of relaxation activity of phenylephrine-induced Sprague-Dawley rat aortic ring contraction; format: functional; conditions: Aorta
[7] = target: Rho-associated protein kinase 1 (Homo sapiens, UniProt Q13464); test: Inhibition of human ROCK1 by homogenous luciferase assay
[8] = Solubility at pH 4.5; format: physicochemical; conditions: buffer
[9] = Solubility at pH 7.4; format: physicochemical; conditions: buffer
Cytochrome P450 3A4 [10] = target: T4, Cytochrome P450 3A4 (Homo sapiens, UniProt P08684); test: Inhibition of human CYP3A4 using BFC substrate by fluorescence assay; format: ADME
Cytochrome P450 3A4 [11] = target: T4, Cytochrome P450 3A4; test: Inhibition of human CYP3A4 using BQ substrate by fluorescence assay; format: ADME
[12] = target: T5, Rho-associated protein kinase 2 (Homo sapiens, UniProt O75116)
Description: Inhibition of human ROCK2 by homogenous luciferase assay

in vitro = conditions: human, Caco-2
Description: Ratio of permeability from basolateral to apical side over apical to basolateral side in human Caco-2 cells

[13] = target: T6, Protein kinase C epsilon type (Homo sapiens, UniProt Q02156); test: Inhibition of PKCepsilon
T6 sequence (Q02156 whole entry): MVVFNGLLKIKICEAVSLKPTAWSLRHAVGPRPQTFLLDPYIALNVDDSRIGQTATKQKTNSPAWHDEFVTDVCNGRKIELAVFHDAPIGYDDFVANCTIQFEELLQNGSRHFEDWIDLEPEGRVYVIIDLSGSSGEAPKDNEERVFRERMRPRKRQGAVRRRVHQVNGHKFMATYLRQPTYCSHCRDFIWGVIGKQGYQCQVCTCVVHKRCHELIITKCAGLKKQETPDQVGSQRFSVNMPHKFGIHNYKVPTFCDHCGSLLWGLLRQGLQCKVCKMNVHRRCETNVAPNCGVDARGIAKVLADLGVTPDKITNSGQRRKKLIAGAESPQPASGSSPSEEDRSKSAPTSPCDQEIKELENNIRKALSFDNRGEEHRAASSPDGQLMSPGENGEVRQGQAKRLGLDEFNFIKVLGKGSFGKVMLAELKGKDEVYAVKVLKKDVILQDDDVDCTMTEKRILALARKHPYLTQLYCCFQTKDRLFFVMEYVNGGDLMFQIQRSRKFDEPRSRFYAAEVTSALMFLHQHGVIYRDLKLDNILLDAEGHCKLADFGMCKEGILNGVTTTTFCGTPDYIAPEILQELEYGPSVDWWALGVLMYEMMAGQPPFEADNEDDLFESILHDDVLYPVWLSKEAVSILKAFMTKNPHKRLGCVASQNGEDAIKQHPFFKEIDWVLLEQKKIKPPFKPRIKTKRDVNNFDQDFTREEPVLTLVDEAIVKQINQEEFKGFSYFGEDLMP

[14] = Membrane permeability by PAMPA assay; format: ADME; conditions: read-out: permeability
Cytochrome P450 1A2 [15] = target: T1, Cytochrome P450 1A2; test: Inhibition of human CYP1A2 by LCMS/MS assay; format: ADME
Cytochrome P450 2C9 [16] = target: T2, Cytochrome P450 2C9; test: Inhibition of human CYP2C9 by LCMS/MS assay; format: ADME
Cytochrome P450 2D6 [17] = target: T3, Cytochrome P450 2D6; test: Inhibition of human CYP2D6 by LCMS/MS assay; format: ADME
Cytochrome P450 3A4 [18] = target: T4, Cytochrome P450 3A4; test: Inhibition of human CYP3A4 by LCMS/MS assay; format: ADME
[19] = target: Serine/threonine-protein kinase N2 (Homo sapiens, UniProt Q16513)
[20] = target: Serine/threonine-protein kinase MRCK beta (Homo sapiens) (UniProt Q9Y5S2); test: Inhibition of CDC42BPB
Caco-2 = test: as §1; format: ADME, cell-based; conditions: caco-2, BLD = below limit of detection
[21] = Bioavailability in rat; format: ADME, organism-based; conditions: in vivo
[22] = target: T5, Rho-associated protein kinase 2; test: Inhibition of human ROCK2 by IMAP assay

T5 sequence (O75116 whole entry): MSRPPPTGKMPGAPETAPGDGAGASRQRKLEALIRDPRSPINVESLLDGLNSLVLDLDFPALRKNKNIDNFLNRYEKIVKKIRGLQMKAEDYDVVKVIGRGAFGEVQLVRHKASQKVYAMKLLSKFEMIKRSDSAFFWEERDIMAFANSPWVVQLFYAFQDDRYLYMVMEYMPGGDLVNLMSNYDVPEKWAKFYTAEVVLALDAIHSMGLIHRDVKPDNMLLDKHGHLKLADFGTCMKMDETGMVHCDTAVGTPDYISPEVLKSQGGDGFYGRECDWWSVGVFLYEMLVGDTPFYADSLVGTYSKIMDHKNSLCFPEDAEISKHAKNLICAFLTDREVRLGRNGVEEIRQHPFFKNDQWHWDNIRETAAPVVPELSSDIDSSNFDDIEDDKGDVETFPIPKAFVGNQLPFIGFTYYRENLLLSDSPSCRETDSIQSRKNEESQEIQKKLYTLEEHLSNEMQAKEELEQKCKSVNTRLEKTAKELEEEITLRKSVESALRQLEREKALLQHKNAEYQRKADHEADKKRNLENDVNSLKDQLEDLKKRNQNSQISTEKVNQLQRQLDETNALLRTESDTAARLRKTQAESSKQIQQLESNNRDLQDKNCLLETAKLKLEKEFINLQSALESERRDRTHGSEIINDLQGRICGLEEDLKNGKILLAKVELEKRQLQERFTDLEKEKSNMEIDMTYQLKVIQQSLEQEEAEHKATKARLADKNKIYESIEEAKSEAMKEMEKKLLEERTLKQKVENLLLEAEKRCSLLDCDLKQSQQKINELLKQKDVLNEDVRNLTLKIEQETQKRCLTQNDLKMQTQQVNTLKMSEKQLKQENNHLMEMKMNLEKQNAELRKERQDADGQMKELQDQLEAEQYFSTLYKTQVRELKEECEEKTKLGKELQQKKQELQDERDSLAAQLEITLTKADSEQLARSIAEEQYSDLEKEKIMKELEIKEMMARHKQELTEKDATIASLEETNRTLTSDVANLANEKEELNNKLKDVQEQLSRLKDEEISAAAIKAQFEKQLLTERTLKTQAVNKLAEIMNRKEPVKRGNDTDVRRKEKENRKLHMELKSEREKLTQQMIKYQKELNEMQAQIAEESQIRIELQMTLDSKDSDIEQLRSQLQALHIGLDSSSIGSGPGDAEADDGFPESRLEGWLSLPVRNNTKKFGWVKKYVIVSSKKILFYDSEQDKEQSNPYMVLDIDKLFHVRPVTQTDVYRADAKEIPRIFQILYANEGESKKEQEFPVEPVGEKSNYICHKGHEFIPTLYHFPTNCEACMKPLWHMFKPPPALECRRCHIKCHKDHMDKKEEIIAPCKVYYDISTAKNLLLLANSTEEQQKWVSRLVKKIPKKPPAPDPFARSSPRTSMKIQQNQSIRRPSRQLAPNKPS
T4 sequence (P08684 whole entry): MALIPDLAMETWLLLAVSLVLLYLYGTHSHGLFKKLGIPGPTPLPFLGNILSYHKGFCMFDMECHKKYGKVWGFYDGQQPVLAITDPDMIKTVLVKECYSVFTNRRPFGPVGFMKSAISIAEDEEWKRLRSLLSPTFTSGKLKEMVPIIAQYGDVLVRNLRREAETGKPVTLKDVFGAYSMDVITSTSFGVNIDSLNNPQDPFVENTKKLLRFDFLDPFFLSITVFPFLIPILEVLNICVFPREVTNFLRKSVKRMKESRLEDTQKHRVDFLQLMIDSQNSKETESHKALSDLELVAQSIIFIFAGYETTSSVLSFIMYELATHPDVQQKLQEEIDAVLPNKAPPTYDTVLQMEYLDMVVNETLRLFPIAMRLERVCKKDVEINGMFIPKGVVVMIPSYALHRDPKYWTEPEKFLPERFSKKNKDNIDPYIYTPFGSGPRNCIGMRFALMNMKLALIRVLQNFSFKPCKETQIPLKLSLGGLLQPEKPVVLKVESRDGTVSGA
T3 sequence (P10635 whole entry): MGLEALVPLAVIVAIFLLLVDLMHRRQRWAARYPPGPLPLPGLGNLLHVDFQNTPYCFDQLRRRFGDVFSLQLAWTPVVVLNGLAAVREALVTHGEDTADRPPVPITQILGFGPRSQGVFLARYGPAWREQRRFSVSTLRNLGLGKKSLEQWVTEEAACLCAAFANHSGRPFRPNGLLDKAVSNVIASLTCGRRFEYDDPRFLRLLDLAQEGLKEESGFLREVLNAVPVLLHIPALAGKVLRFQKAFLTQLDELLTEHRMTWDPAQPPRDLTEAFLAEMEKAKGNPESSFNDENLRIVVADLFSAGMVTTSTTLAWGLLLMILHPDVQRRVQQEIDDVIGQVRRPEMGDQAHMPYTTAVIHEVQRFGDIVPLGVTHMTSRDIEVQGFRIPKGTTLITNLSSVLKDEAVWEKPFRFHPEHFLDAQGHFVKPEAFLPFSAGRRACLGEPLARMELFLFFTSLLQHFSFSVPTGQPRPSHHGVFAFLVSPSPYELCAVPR
T2 sequence (P11712 whole entry): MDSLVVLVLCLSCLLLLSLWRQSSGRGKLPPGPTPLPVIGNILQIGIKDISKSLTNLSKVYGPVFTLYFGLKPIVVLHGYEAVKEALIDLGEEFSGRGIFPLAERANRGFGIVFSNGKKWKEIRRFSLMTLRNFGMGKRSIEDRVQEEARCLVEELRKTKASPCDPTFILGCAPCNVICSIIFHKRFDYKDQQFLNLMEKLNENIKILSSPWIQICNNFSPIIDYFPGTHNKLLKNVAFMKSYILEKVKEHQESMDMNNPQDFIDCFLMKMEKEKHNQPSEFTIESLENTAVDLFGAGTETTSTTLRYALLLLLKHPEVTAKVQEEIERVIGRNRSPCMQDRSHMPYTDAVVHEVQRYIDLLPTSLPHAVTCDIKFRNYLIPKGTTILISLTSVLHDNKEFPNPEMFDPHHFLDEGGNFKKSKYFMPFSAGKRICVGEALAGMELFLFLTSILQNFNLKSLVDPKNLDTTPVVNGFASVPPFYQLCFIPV
Sequence of Serine/threonine-protein kinase MRCK beta (Homo sapiens) (Q9Y5S2 whole entry, looked up): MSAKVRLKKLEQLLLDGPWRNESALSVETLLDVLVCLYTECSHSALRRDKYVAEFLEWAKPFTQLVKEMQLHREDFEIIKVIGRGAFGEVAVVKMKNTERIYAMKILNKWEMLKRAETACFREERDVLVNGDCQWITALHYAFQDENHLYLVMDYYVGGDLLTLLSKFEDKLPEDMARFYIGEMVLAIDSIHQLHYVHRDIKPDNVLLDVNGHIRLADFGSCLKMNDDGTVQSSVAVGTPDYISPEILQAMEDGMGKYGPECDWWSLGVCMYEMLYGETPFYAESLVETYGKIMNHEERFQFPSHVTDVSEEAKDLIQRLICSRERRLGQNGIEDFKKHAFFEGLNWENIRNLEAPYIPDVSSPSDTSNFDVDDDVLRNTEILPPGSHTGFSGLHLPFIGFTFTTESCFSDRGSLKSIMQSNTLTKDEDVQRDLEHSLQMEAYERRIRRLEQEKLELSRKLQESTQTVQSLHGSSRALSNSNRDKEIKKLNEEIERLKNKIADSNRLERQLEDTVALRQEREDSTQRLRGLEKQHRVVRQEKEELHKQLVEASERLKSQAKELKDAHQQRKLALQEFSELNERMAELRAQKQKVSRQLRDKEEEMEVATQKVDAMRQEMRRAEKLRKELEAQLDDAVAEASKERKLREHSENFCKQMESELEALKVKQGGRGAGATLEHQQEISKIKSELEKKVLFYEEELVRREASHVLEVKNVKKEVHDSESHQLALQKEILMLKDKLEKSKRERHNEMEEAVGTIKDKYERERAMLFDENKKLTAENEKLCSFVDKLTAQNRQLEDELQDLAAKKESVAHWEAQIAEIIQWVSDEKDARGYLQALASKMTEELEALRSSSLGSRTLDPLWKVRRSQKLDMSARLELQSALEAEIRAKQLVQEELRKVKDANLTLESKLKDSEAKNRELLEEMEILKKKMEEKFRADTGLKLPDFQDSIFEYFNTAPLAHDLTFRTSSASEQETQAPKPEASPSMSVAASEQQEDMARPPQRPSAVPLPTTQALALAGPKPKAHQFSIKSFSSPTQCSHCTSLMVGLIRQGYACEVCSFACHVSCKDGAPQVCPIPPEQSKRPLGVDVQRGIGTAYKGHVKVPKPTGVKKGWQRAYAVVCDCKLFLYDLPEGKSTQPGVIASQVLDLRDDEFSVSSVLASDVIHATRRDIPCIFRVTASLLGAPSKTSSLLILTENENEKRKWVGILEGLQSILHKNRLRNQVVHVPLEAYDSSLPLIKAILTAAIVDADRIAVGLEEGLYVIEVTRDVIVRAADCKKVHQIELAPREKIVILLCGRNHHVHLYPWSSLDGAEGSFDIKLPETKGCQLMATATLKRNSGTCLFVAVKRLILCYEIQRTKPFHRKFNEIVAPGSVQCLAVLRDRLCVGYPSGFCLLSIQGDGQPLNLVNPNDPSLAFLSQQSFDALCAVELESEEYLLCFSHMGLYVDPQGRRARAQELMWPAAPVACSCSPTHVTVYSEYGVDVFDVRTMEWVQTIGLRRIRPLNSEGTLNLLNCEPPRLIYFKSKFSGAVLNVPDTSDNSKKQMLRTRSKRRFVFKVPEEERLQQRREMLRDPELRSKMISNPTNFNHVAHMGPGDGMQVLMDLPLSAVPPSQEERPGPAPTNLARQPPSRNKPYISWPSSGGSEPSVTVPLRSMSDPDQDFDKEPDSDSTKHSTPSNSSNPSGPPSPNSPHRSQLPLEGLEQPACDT
Sequence of Cytochrome P450 2C19 (P33261 whole entry): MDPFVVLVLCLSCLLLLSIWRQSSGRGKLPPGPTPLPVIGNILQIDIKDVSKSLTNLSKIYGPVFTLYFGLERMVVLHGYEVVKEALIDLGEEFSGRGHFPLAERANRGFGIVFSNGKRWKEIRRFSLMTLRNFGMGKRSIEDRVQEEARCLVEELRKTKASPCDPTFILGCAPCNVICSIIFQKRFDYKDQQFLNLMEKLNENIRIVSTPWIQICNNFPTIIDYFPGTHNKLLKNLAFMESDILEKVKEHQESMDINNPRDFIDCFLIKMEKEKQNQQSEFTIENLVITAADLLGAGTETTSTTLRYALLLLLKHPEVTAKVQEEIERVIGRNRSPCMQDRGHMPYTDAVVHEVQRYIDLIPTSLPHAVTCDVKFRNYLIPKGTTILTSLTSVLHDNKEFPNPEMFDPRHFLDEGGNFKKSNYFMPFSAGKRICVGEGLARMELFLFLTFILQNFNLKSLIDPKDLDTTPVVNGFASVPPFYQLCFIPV

Papp A→B [1] [×10⁻⁶ cm/s] | Papp B→A [2] [×10⁻⁶ cm/s] | half-life [3] [min] | IC50 (Cytochrome P450 1A2 [4]) [µM] | IC50 (Cytochrome P450 2C9 [5]) [µM] | IC50 (Cytochrome P450 2C19) [µM] | IC50 (Cytochrome P450 2D6 [6]) [µM] | IC50 (Rattus norvegicus) [µM] | solubility [9] [µg/mL] | IC50 (Cytochrome P450 3A4 [10]) [µM] | IC50 (Cytochrome P450 3A4 [11]) [µM] | IC50 [12] [µM] | IC50 [13] [µM] | Papp [14] [×10⁻⁶ cm/s] | IC50 [19] [µM] | IC50 [20] [µM] | Compound | other results
0.5 | 29.1 | 10 | > 30 | 16 | > 30 | > 30 | 1.9 | 63 (≈ 150 µM) | 4 | 21 | 2.3 |  |  |  |  | COc1ccc(C(=O)NCc2cccc(C(=O)NCCc3ccncc3)c2)cc1OC | IC50 [7]: 4.3 µM; solubility [8]: > 100 µg/mL; efflux ratio (in vitro): 58
7.7 | 45.3 |  |  |  |  |  | 1.6 | > 96 |  |  |  | > 5 | 24 | > 5 | > 5 | COc1ccc(C(=O)NCc2cccc(C(=O)Nc3ccc(CN(C)C)cc3)c2)cc1Cl | IC50 (Cytochrome P450 1A2 [15]): > 30 µM; IC50 (Cytochrome P450 2C9 [16]): > 30 µM; IC50 (Cytochrome P450 2D6 [17]): > 30 µM; IC50 (Cytochrome P450 3A4 [18]): > 30 µM
 | 14.6 | 66 | > 30 | > 30 | > 30 | > 30 | 6 | > 100 | 8.5 | > 30 | 0.069 | > 5 | 10 | > 5 | > 5 | COc1ccc(C(=O)NCc2cccc(C(=O)Nc3ccc(CN(C)C)cc3)c2)cc1OC | permeability (Caco-2): BLD; bioavailability [21]: 1.8%; IC50 [22]: 0.23 µM
